Results from patent US8710043B2, “TRPM8 antagonists and their use in treatments” (Amgen Inc., priority 2011, dated 2014).

These compounds were tested against T1, human TRPM8 (Homo sapiens, UniProt Q7Z2W7) (assay: Luminescence readout assay for measuring intracellular calcium, icilin activation). Conditions: CHO cells expressing human TRPM8, aequorin luminescence, 1 μM icilin activation; read-out: hTRPM8 IC50.
T1 construct: expressed in transfected cells; host or cells: Chinese hamster ovary (CHO) cells, T-REx tetracycline-inducible system, co-transfected with aequorin
Type: cell-based
Procedure: Luminescence Readout Assay for Measuring Intracellular Calcium.
A stable Chinese hamster ovary cell line expressing human TRPM8 was generated using tetracycline inducible T-REx™ expression system from Invitrogen, Inc. (Carlsbad, Calif.). […] Twenty four hours before the assay, cells were seeded in 96-well plates and TRPM8 expression was induced with 0.5 μg/mL tetracycline. […] Potential antagonists were added 2.5 min prior to the addition of agonist, 1 μM icilin, 100 μM L-menthol, or 1 min prior to the addition of cold buffer (<10° C.). The luminescence was measured by a CCD camera based FLASH-luminometer built by Amgen, Inc. A cooling device attached to FLASH luminometer was used for cold activation.

T1 sequence (Q7Z2W7 whole entry): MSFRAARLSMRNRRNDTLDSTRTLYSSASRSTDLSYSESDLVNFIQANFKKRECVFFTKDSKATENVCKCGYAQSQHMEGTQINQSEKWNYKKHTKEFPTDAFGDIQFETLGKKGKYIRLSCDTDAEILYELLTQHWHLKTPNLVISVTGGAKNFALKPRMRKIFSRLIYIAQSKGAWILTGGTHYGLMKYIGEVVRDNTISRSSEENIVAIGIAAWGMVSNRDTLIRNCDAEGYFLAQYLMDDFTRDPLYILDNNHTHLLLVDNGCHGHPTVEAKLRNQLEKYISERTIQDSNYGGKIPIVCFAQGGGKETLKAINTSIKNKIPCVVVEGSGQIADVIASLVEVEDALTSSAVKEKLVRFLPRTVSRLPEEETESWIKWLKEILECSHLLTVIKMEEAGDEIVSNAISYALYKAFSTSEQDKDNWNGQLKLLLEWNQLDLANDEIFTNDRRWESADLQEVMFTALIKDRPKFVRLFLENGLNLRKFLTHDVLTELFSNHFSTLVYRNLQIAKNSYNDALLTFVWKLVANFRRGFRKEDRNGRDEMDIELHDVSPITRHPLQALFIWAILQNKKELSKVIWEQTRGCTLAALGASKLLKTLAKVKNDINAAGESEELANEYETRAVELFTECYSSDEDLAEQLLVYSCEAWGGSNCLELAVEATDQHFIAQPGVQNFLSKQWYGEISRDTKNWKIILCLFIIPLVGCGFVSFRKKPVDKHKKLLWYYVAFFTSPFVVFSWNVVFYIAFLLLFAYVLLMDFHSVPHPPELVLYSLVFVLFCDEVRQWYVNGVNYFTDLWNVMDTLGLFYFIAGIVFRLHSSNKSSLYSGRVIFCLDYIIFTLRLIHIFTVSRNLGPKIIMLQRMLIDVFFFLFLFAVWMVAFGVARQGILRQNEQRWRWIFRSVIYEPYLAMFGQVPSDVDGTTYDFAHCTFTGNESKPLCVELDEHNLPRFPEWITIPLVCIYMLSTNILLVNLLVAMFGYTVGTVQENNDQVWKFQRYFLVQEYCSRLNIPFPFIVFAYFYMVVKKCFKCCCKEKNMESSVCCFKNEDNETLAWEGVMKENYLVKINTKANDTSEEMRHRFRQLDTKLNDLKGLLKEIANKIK

Row | SMILES | IC50
1 | O=C(N[C@@H](c1ccc(C(F)(F)F)cc1)c1ncccc1C(F)(F)F)C1CCOC1 (stereo partly drawn) [Example 225, N-((S)-(4-(trifluoromethyl)phenyl)(3-(trifluoromethyl)pyridin-2-yl)methyl)THF-3-carboxamide] | 487 nM
2 | Cc1ncsc1CCC(=O)N[C@@H](c1ccc(C(F)(F)F)cc1)c1ncccc1C(F)(F)F [Example 145, (S)-3-(4-methylthiazol-5-yl)-N-((4-(trifluoromethyl)phenyl)(3-(trifluoromethyl)pyridin-2-yl)methyl)propanamide] | 85.2 nM
3 | N#Cc1ccc(C(=O)N[C@@H](c2ccc(C(F)(F)F)cc2)c2ncccc2C(F)(F)F)cn1 [Example 206, (S)-6-cyano-N-((4-(trifluoromethyl)phenyl)(3-(trifluoromethyl)pyridin-2-yl)methyl)nicotinamide] | 67.5 nM
4 | Cc1cccnc1[C@@H](NC(=O)c1ccc2nccn2c1)c1ccc(C(F)(F)F)cc1 [Example 314, (S)-N-((3-methylpyridin-2-yl)(4-(trifluoromethyl)phenyl)methyl)imidazo[1,2-a]pyridine-6-carboxamide] | 21.8 nM
5 | CC(C)(C)Cc1cccnc1[C@@H](NC(=O)c1ccc2ncccc2c1)c1ccc(C(F)(F)F)cc1 [Example 236, (S)-N-((3-neopentylpyridin-2-yl)(4-(trifluoromethyl)phenyl)methyl)quinoline-6-carboxamide] | 239 nM
6 | O=C(N[C@@H](c1ccc(C(F)(F)F)cc1)c1ncccc1C(F)(F)F)c1ccc2nccn2c1 [Example 254, (S)-N-((4-(trifluoromethyl)phenyl)(3-(trifluoromethyl)pyridin-2-yl)methyl)imidazo[1,2-a]pyridine-6-carboxamide 2,2,2-trifluoroacetate] | 11.8 nM
7 | O=C(N[C@@H](c1ccc(C(F)(F)F)cc1)c1ncccc1F)c1ccc(-c2nc(=O)o[nH]2)cc1 [Example 315, (S)-N-((3-fluoropyridin-2-yl)(4-(trifluoromethyl)phenyl)methyl)-4-(5-oxo-2,5-dihydro-1,2,4-oxadiazol-3-yl)benzamide] | 36.3 nM
8 | O=C(N[C@@H](c1ccc(C(F)(F)F)cc1)c1ncccc1F)c1ccn2nnnc2c1 [Example 308, (S)-N-((3-fluoropyridin-2-yl)(4-(trifluoromethyl)phenyl)methyl)tetrazolo[1,5-a]pyridine-7-carboxamide] | 26.9 nM
9 | CCn1cc(C(=O)N[C@@H](c2ccc(OC(F)(F)F)c(F)c2)c2ncccc2F)ccc1=O [Example 366, (S)-1-ethyl-N-((3-fluoro-4-(trifluoromethoxy)phenyl)(3-fluoropyridin-2-yl)methyl)-6-oxo-1,6-dihydropyridine-3-carboxamide] | 9.7 nM
10 | O=C(NC(c1cccc(F)c1)c1ccc(OC(F)(F)F)c(F)c1)c1ccc(=O)[nH]c1 (centres unmarked) [Example 417, N-((3-fluoro-4-(trifluoromethoxy)phenyl)(3-fluorophenyl)methyl)-6-oxo-1,6-dihydropyridine-3-carboxamide] | 83 nM
11 | Nc1ccc(C(=O)N[C@@H](c2ccc(C(F)(F)F)cc2)c2ncccc2C(F)(F)F)cn1 [Example 134, (S)-6-amino-N-((4-(trifluoromethyl)phenyl)(3-(trifluoromethyl)pyridin-2-yl)methyl)nicotinamide] | 31 nM
12 | O=C(N[C@@H](c1ccc(OC(F)(F)F)c(F)c1)c1ncccc1C(F)(F)F)c1ccc2oc(=O)[nH]c2c1 [Example 385, (S)-N-((3-fluoro-4-(trifluoromethoxy)phenyl)(3-(trifluoromethyl)pyridin-2-yl)methyl)-2-oxo-2,3-dihydrobenzo[d]oxazole-5-carboxamide] | 6.7 nM
13 | O=C(N[C@@H](c1ccc(C(F)(F)F)c(F)c1)c1ncccc1C(F)(F)F)c1cnccn1 [Example 111, (S)-N-((3-fluoro-4-(trifluoromethyl)phenyl)(3-(trifluoromethyl)pyridin-2-yl)methyl)pyrazine-2-carboxamide] | 55.9 nM
14 | O=C(N[C@@H](c1ccc(C(F)(F)F)cc1)c1ncccc1C(F)(F)F)c1ccc2c(Cl)ccnc2c1 [Example 110, (S)-4-chloro-N-((4-(trifluoromethyl)phenyl)(3-(trifluoromethyl)pyridin-2-yl)methyl)quinoline-7-carboxamide 2,2,2-trifluoroacetate] | 64.4 nM
15 | COc1ccc(C(=O)N[C@@H](c2ccc(C(F)(F)F)cc2)c2ncccc2C(F)(F)F)nc1 [Example 210, (S)-5-methoxy-N-((4-(trifluoromethyl)phenyl)(3-(trifluoromethyl)pyridin-2-yl)methyl)picolinamide] | 150 nM
16 | Cn1ccc(C(=O)N[C@@H](c2ccc(C(F)(F)F)cc2)c2ncccc2C(F)(F)F)n1 [Example 192, (S)-1-methyl-N-((4-(trifluoromethyl)phenyl)(3-(trifluoromethyl)pyridin-2-yl)methyl)-1H-pyrazole-3-carboxamide] | 79 nM
17 | Cc1cc([C@H](NC(=O)c2ccc(=O)[nH]c2)c2ncccc2F)ccc1F [Example 338, (S)-N-((4-fluoro-3-methylphenyl)(3-fluoropyridin-2-yl)methyl)-6-oxo-1,6-dihydropyridine-3-carboxamide] | 264 nM
18 | CC(C)(O)Cn1cc(C(=O)N[C@@H](c2ccc(OC(F)(F)F)c(F)c2)c2ncccc2F)ccc1=O [Example 302, (S)-N-((3-fluoro-4-(trifluoromethoxy)phenyl)(3-fluoropyridin-2-yl)methyl)-1-(2-hydroxy-2-methylpropyl)-6-oxo-1,6-dihydropyridine-3-carboxamide] | 70.9 nM
19 | O=C(N[C@@H](c1ccc(C(F)(F)F)cc1)c1ncccc1F)c1ccc(=O)[nH]n1 [Example 317, (S)-N-((3-fluoropyridin-2-yl)(4-(trifluoromethyl)phenyl)methyl)-6-oxo-1,6-dihydropyridazine-3-carboxamide] | 38.9 nM
20 | O=C(N[C@@H](c1ccc(C(F)(F)F)c(F)c1)c1ncccc1C(F)(F)F)c1ccc2ncccc2c1 [Example 130, (S)-N-((3-fluoro-4-(trifluoromethyl)phenyl)(3-(trifluoromethyl)pyridin-2-yl)methyl)quinoline-6-carboxamide bis (2,2,2-trifluoroacetate)] | 24.7 nM
21 | O=C(N[C@@H](c1ccc(C(F)(F)F)cc1)c1ncccc1F)c1ccc2nccn2c1 [Example 253, (S)-N-((3-fluoropyridin-2-yl)(4-(trifluoromethyl)phenyl)methyl)imidazo[1,2-a]pyridine-6-carboxamide 2,2,2-trifluoroacetate] | 11.4 nM

The next lines start with the values.

Row | IC50 | SMILES
22 | 599 nM | O=C1CCCC(C(=O)N[C@@H](c2ccc(C(F)(F)F)cc2)c2ncccc2C(F)(F)F)C1 (stereo partly drawn) [Example 223, 3-oxo-N-((S)-(4-(trifluoromethyl)phenyl)(3-(trifluoromethyl)pyridin-2-yl)methyl)cyclohexanecarboxamide]
23 | 77.6 nM | O=C(N[C@@H](c1ccc(C(F)(F)F)cc1)c1ncccc1C(F)(F)F)c1ccoc1 [Example 199, (S)-N-((4-(trifluoromethyl)phenyl)(3-(trifluoromethyl)pyridin-2-yl)methyl)furan-3-carboxamide]
24 | 80.7 nM | O=C(N[C@@H](c1cnc2ccc(Cl)cc2c1)c1ncccc1C(F)(F)F)c1ccc(=O)[nH]c1 [Example 16, (S)-N-((6-chloroquinolin-3-yl)(3-(trifluoromethyl)pyridin-2-yl)methyl)-6-hydroxynicotinamide]
25 | 15.9 nM | CC1(C)C[C@H]1c1cccnc1[C@@H](NC(=O)c1ccc2cccnc2c1)c1ccc(C(F)(F)F)cc1 [Example 232, N-((S)-(3-((R)-2,2-dimethylcyclopropyl)pyridin-2-yl)(4-(trifluoromethyl)phenyl)methyl)quinoline-7-carboxamide]
26 | 18.3 nM | O=C(N[C@@H](c1ccc(OC(F)(F)F)c(F)c1)c1ncccc1F)c1ccc(O)cn1 [Example 389, (S)-N-((3-fluoro-4-(trifluoromethoxy)phenyl)(3-fluoropyridin-2-yl)methyl)-5-hydroxypicolinamide 2,2,2-trifluoroacetate]
27 | 63.5 nM | O=C(N[C@@H](c1ccc(C(F)(F)F)cc1)c1ncccc1C(F)(F)F)c1c[nH]c2ncncc12 [Example 45, (S)-N-((4-(trifluoromethyl)phenyl)(3-(trifluoromethyl)pyridin-2-yl)methyl)-7H-pyrrolo[2,3-d]pyrimidine-5-carboxamide]
28 | 3180 nM | O=C1CC(C(=O)N[C@@H](c2ccc(C(F)(F)F)cc2)c2ncccc2C(F)(F)F)CN1 (stereo partly drawn) [Example 163, 5-oxo-N-((S)-(4-(trifluoromethyl)phenyl)(3-(trifluoromethyl)pyridin-2-yl)methyl)pyrrolidine-3-carboxamide]
29 | 18.8 nM | O=C1CCc2cc(C(=O)N[C@@H](c3ccc(OC(F)(F)F)cc3)c3ncccc3F)ccc2N1 [Example 352, (S)-N-((3-fluoropyridin-2-yl)(4-(trifluoromethoxy)phenyl)methyl)-2-oxo-1,2,3,4-tetrahydroquinoline-6-carboxamide]
30 | 146 nM | O=C(N[C@@H](c1cnc2cccc(Cl)c2c1)c1ncccc1C(F)(F)F)c1ccc2cccnc2c1 [Example 9, (S)-N-((5-chloroquinolin-3-yl)(3-(trifluoromethyl)pyridin-2-yl)methyl)quinoline-7-carboxamide]
31 | 114 nM | CN(C)c1ccc(C(=O)N[C@@H](c2ccc(C(F)(F)F)cc2)c2ncccc2C(F)(F)F)cn1 [Example 262, (S)-6-(Dimethylamino)-N-((4-(trifluoromethyl)phenyl)(3-(trifluoromethyl)pyridin-2-yl)methyl)nicotinamide]
32 | 3380 nM | O=C(O)C1CCC(C(=O)N[C@@H](c2ccc(C(F)(F)F)cc2)c2ncccc2C(F)(F)F)CC1 (stereo partly drawn) [Example 244, (S)-4-(((4-(trifluoromethyl)phenyl)(3-(trifluoromethyl)pyridin-2-yl)methyl)carbamoyl)cyclohexanecarboxylic acid]
